# Laboratory results taken from patent US20130109049A1, “Method of Establishing a Fungal Nail Infection” (NOVABIOTICS LIMITED, priority 2009, published 2013).
# Key:
# Assay type in all cases: cell-based
# [1] = system: Trichophyton rubrum strain NCPF0118; experiment: Ex vivo human nail fragment model, treatment of established infection (cfu recovered)
# Protocol: For antifungal efficacy studies with human toe nails, a solution of 50% (w/v) PEG 8000 (Sigma-Aldrich; Cat No P2139) was prepared by autoclaving and then diluting with sterile 50% (w/v) urea solution (Sigma-Aldrich; Cat No 51457). This solution was mixed thoroughly by vortexing and allowed to stabilise at 50° C. for up to 2 h. After stabilisation, the temperature was allowed to drop to below 40° C. and a concentrated, filter-sterilised solution of Novexatin® (NP213), dissolved in deionised water was added. Final concentrations of PEG 8000 of 50% (w/v), urea of 0-20% (w/v) and Novexatin® (NP213) of 0-10% (w/v) were used in the experiments described below.
# On arrival, the cultures were transferred to a Petri dish containing sterile Sabouraud Dextrose agar (Sigma-Aldrich; Cat No 84088, or equivalent) and grown for up to 7 d at 30° C. The resulting growth was scraped off and re-suspended in Sabouraud's liquid medium (Oxoid; Cat No CM 147, or equivalent) containing […] dimethyl sulfoxide (DMSO) as cryoprotectant to create a culture stock. The fungus was stored in 0.5 ml aliquots in 2 ml screw-capped polypropylene vials (Cryovials) at −80° C. Seven days prior to experimental use, 50 μl of the culture stock was used to inoculate a slope of Potato Dextrose agar (Merck; Cat No VM556130 609, or equivalent), which was incubated at 30° C. for up to 7 d. The surface of the resulting growth was gently perturbed in 3 ml of sterile distilled/deionised water. After filtration through 2 layers of sterile surgical gauze to remove debris and larger clumps of biomass, the absorbance of the resultant spore suspension was measured at 530 nm, then adjusted to the 0.5 MacFarland standard (OD approx. 0.15)^2.
# Human toe nails were obtained from a podiatrist in Aberdeen following a successful application to the Grampian Local Research Ethics Committee. […] Large toe nails were cut into 4 pieces, each approximately 1 cm^2 in area, using nail clippers. Nails of normal thickness (≦2 mm) were chosen. The 4 fragments cut from each single nail were placed in quadrants marked on Petri-dishes containing phosphate buffered saline rendered solid with 1.2% (w/v) Technical Agar No. 3 (Oxoid; Cat No LP0013, or equivalent), subsequently referred to as PBS agar. The nail fragments were of irregular shape, so to ensure that each nail received the appropriate amount of the treatment solutions, the surface area was measured by photographing the nails over graph paper and determining the number of 1mm^2 squares covered by each nail. The thickness of the nails was measured with a micrometer and nails distributed among treatment groups, to avoid nail thickness providing an additional experimental variable.
# Twenty four nail fragments from 6 whole large toenails were each inoculated with 10 μl of a spore suspension of T. rubrum NCPF0118 which was prepared as described above. The inoculum was applied to the ventral side of the nail (i.e. the side next to the skin in situ). The nails were incubated for 7 d at 30° C. to allow the fungus to infect the nail tissue. After this pre-incubation period, 12 of the fragments were assigned to each of 2 different treatment protocols, involving daily treatment with 2 different vehicle solutions, each containing a control and 3 different concentrations of Novexatin® (NP213). These vehicle solutions were: 50% (w/v) PEG 8000, and 50% (w/v) PEG 8000 plus 20% (w/v) urea. The concentrations of Novexatin® (NP213) studied were 0%, 1%, 5% and 10% (w/v). The solutions were applied at a volume of 10 μl/cm^2, corrected for the surface area of the different nail fragments as described above. The applied solution was spread over the dorsal side of the nail, to mimic the intended clinical treatment and the ventral side of the nail rested on the agar surface. Each time the nails were treated, they were transferred to a new sterile Petri dish containing PBS agar to minimise any build-up of fungal growth on the agar. Nail fragments were treated daily for 28 days. […]
# [2] = system: Trichophyton rubrum strain NCPF0118; experiment: as above; remark: listed apart in the source
# [3] = system: four clinical isolates of Trichophyton spp.; experiment: In vitro MIC testing of clinical isolates
# Description: However, this difference in activity is not reflected in human nail tissue, which should be considered a more appropriate model for activity testing for antimicrobials of this type.
# [4] = Experiment 1, 5% (w/v), absence of urea, daily 28 days
substance,measurement,setting,value
7 to 200-mer (SEQ ID NO: 3) polyarginine [Novexatin® (NP213)],killing of T. rubrum NCPF0118 on nail fragments (dose dependence),"[1]; Experiment 1, 0%, 1%, 5%, 10% (w/v) in 50% PEG 8000 with or without 20% urea, daily for 28 days",dose-dependent
same,reduction in fungal survival,"[1]; Experiment 1, 1% (w/v), daily 28 days",approximately 1 log10
same,"fungi isolated with 20% (w/v) urea added to the vehicle, versus vehicle alone","[1]; Experiment 1, 1% (w/v), not statistically significant",fewer fungi than in vehicle alone
same,fungal colonies isolated from nail fragments,"[1]; Experiment 1, 5% (w/v) with 20% (w/v) urea in vehicle, daily 28 days",no colonies were isolated
same,decrease in survival of the fungus compared to controls,[1]; [4],approximately 3 log10
same,fungal colonies isolated from nail fragments,[1]; [4],a small number of colonies were detected
same,recoverable fungal growth after treatment,"[1]; Experiment 5, 10% (w/v), approximately 100×MIC100, 14 d or 28 d, daily",no recoverable fungal growth
same,killing of T. rubrum NCPF0118,"[2]; 10% (w/v) in 50% (w/v) PEG 8000 vehicle, 28 d of treatment",> 99.9%
same,fungal colonies isolated from nail fragments,"[2]; Experiment 1, 10% (w/v), both presence and absence of urea, daily 28 days",no colonies were isolated
same,effect of treatment on fungal survival (dose dependence),"[2]; Experiment 2, 0%, 2.5%, 5%, 10% (w/v) in 50% PEG 8000 + 20% urea",dose-dependent effect
same,reduction in fungal survival,"[2]; Experiment 2, 2.5% and 5.0% (w/v), daily",significant reductions in fungal survival
same,reduction in fungal survival,"[2]; Experiment 2, 2.5%, 5.0% and 10.0% (w/v), alternate days",the reduction in fungal survival was significant
same,reduction of fungal survival relative to Experiment 1,"[2]; Experiment 2, 5% (w/v), difference not statistically significant",less effective in reducing fungal survival than observed in Experiment 1
same,fungal colonies recovered,"[2]; Experiment 2, 10% (w/v) applied daily, PEG 8000 + 20% urea",no fungal colonies were recovered
same,decrease in survival of the fungus compared to controls,"[2]; Experiment 2, 10% (w/v) applied on alternate days",~3 log10
same,fungal colonies recovered,"[2]; Experiment 2, 10% (w/v) applied on alternate days, PEG 8000 + 20% urea",small numbers of colonies were recovered
same,visual examination of nail fragments,"[2]; Experiment 2, after 28 d treatment, versus vehicle alone (FIG. 7)",no visual evidence of fungal infection
same,effect of simulated washing on antifungal efficacy,"[2]; Experiment 4, nail surface wiped with sterile water before application",did not affect the antifungal efficacy
same,fungal colonies recovered,"[2]; Experiment 4, washed or unwashed nail fragments, 28 days",No fungal colonies were recovered
same,susceptibility of clinical isolates compared to T. rubrum NCPF0118,[3],less susceptible
